Columns and labels:
Assay in all cases: relative viability (nuclei count vs DMSO), 5 days (fraction); higher = more cells survive
[1] = compound: Cc1ccc(F)c(NC(=O)Nc2ccc(-c3cccc4[nH]nc(N)c34)cc2)c1 [Linifanib]
Outline: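 After an overnight hold at 37 °C, lung cancer cell lines in 1536-well plates were pinned with five library-drug doses (not always all listed), each √10 from the next, on vehicle-anchored plates. The cells stayed 5 days without fresh medium, then a one-step fix, permeabilisation and Hoechst stain preceded 4× imaging and MetaXpress nuclear counts. A plate passed only with control CV under 25% and at least one doubling. Viability is the median, over plates, of treated-well nuclei relative to vehicle-well nuclei.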

[2] = compound: Cc1ccc(F)c(NC(=O)Nc2ccc(-c3cccc4[nH]nc(N)c34)cc2)c1 [Linifanib] + O=C(c1cc(Cc2n[nH]c(=O)c3ccccc23)ccc1F)N1CCN(C(=O)C2CC2)CC1 [Olaparib] (partner 8 µM)
Outline: (§1)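 Cells from lung cancer lines were seeded into 1536-well plates and, one day later, dosed by pin tool. Treatments were either a single drug or a fixed dose of an anchor drug with five library-drug doses (not always all listed) in √10 steps. After 5 days, nuclei were stained in a one-step fixation (final 0.05% Triton X-100, 1% formaldehyde, 1 ug/ml Hoechst) and counted on 4× images, and relative viability is the treated-to-vehicle nuclei ratio, as the median of duplicate plates.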

[3] = compound: Cc1ccc(F)c(NC(=O)Nc2ccc(-c3cccc4[nH]nc(N)c34)cc2)c1 [Linifanib] + C[C@@H](Oc1cc(-c2cnn(C3CCNCC3)c2)cnc1N)c1c(Cl)ccc(F)c1Cl [Crizotinib] (partner 1 µM)
Outline: as §1

[4] = compound: Cc1ccc(F)c(NC(=O)Nc2ccc(-c3cccc4[nH]nc(N)c34)cc2)c1 [Linifanib] + N=C(N)NC(=N)NCCc1ccccc1 [Phenformin] (partner 250 µM)
Outline: as §1

[5] = compound: Cc1ccc(F)c(NC(=O)Nc2ccc(-c3cccc4[nH]nc(N)c34)cc2)c1 [Linifanib] + CS(=O)(=O)CCNCc1ccc(-c2ccc3ncnc(Nc4ccc(OCc5cccc(F)c5)c(Cl)c4)c3c2)o1 [Lapatinib] (partner 2 µM)
Outline: as §1

[6] = compound: Cc1ccc(F)c(NC(=O)Nc2ccc(-c3cccc4[nH]nc(N)c34)cc2)c1 [Linifanib] + C[C@]1(O)C[C@@H](c2nc(-c3ccc4ccc(-c5ccccc5)nc4c3)c3c(N)nccn32)C1 [Linsitinib] (partner 1 µM)
Outline: as §1

[7] = compound: Cc1ccc(F)c(NC(=O)Nc2ccc(-c3cccc4[nH]nc(N)c34)cc2)c1 [Linifanib] + CS(=O)(=O)N1CCN(Cc2cc3nc(-c4cccc5[nH]ncc45)nc(N4CCOCC4)c3s2)CC1 [Pictilisib] (partner 1 µM)
Outline: as §1

[8] = compound: Cc1ccc(F)c(NC(=O)Nc2ccc(-c3cccc4[nH]nc(N)c34)cc2)c1 [Linifanib] + Nc1ncn([C@H]2C[C@H](O)[C@@H](CO)O2)c(=O)n1 [Decitabine] (partner 2 µM)
Outline: as §1

[9] = compound: Cc1ccc(F)c(NC(=O)Nc2ccc(-c3cccc4[nH]nc(N)c34)cc2)c1 [Linifanib] + Cc1nc(NC(=O)N2CCC[C@H]2C(N)=O)sc1-c1ccnc(C(C)(C)C(F)(F)F)c1 [Alpelisib] (partner 2 µM)
Outline: as §1

[10] = compound: Cc1ccc(F)c(NC(=O)Nc2ccc(-c3cccc4[nH]nc(N)c34)cc2)c1 [Linifanib] + COc1cc2c(Oc3ccc(NC(=O)C4(C(=O)Nc5ccc(F)cc5)CC4)cc3F)ccnc2cc1OCCCN1CCOCC1 [Foretinib] (partner 0.25 µM)
Outline: as §1

[11] = compound: Cc1ccc(F)c(NC(=O)Nc2ccc(-c3cccc4[nH]nc(N)c34)cc2)c1 [Linifanib] + CC1(C)CCC(c2ccc(Cl)cc2)=C(CN2CCN(c3ccc(C(=O)NS(=O)(=O)c4ccc(N[C@H](CCN5CCOCC5)CSc5ccccc5)c(S(=O)(=O)C(F)(F)F)c4)cc3)CC2)C1 [Navitoclax] (partner 0.5 µM)
Outline: as §1

[12] = compound: Cc1ccc(F)c(NC(=O)Nc2ccc(-c3cccc4[nH]nc(N)c34)cc2)c1 [Linifanib] + NC(=O)Nc1cc(-c2cccc(F)c2)sc1C(=O)N[C@H]1CCCNC1 [AZD7762] (partner 0.2 µM)
Outline: as §1

[13] = compound: Cc1ccc(F)c(NC(=O)Nc2ccc(-c3cccc4[nH]nc(N)c34)cc2)c1 [Linifanib] + CC(C)C[C@H](NC(=O)[C@H](Cc1ccccc1)NC(=O)c1cnccn1)B(O)O [Bortezomib] (partner 0.002 µM)
Outline: as §1

**Q.** How did the relative viability ([1]; 0.03162 µM) turn out when A549 was run?
**A.** The relative viability was 1.01.

**Q.** What about the relative viability ([1]; 0.1 µM) of the same cell line?
**A.** Its relative viability is 1.05.

**Q.** What about the relative viability ([1]; 0.3162 µM) of the same cell line?
**A.** The relative viability was 0.996.

**Q.** And the relative viability ([2]; first compound 0.03162 µM)?
**A.** The relative viability was 0.369.

**Q.** What about the relative viability ([2]; first compound 0.1 µM) of the same cell line?
**A.** Its relative viability is 0.535.

**Q.** What about the relative viability ([2]; first compound 0.3162 µM) of the same cell line?
**A.** The relative viability was 0.305.

**Q.** And the relative viability ([3]; first compound 0.03162 µM)?
**A.** Its relative viability is 0.795.

**Q.** What about the relative viability ([3]; first compound 0.1 µM) of the same cell line?
**A.** The relative viability was 0.907.

**Q.** What about the relative viability ([3]; first compound 0.3162 µM) of the same cell line?
**A.** The relative viability was 0.726.

**Q.** And the relative viability ([4]; first compound 0.03162 µM)?
**A.** Its relative viability is 0.197.

**Q.** And the relative viability ([4]; first compound 0.1 µM)?
**A.** Its relative viability is 0.215.

**Q.** What about the relative viability ([4]; first compound 0.3162 µM) of the same cell line?
**A.** The relative viability was 0.159.

**Q.** What about the relative viability ([5]; first compound 0.03162 µM) of the same cell line?
**A.** Its relative viability is 0.974.

**Q.** What about the relative viability ([5]; first compound 0.1 µM) of the same cell line?
**A.** Its relative viability is 1.06.

**Q.** What about the relative viability ([5]; first compound 0.3162 µM) of the same cell line?
**A.** Its relative viability is 0.929.

**Q.** And the relative viability ([6]; first compound 0.03162 µM)?
**A.** The relative viability was 0.583.

**Q.** And the relative viability ([6]; first compound 0.1 µM)?
**A.** Its relative viability is 0.716.

**Q.** What about the relative viability ([6]; first compound 0.3162 µM) of the same cell line?
**A.** The relative viability was 0.638.

**Q.** What about the relative viability ([7]; first compound 0.03162 µM) of the same cell line?
**A.** Its relative viability is 0.399.

**Q.** What about the relative viability ([7]; first compound 0.1 µM) of the same cell line?
**A.** Its relative viability is 0.515.

**Q.** And the relative viability ([7]; first compound 0.3162 µM)?
**A.** Its relative viability is 0.49.

**Q.** What about the relative viability ([8]; first compound 0.03162 µM) of the same cell line?
**A.** The relative viability was 0.285.

**Q.** And the relative viability ([8]; first compound 0.1 µM)?
**A.** Its relative viability is 0.309.

**Q.** And the relative viability ([8]; first compound 0.3162 µM)?
**A.** Its relative viability is 0.374.

**Q.** What about the relative viability ([9]; first compound 0.03162 µM) of the same cell line?
**A.** The relative viability was 0.885.

**Q.** What about the relative viability ([9]; first compound 0.1 µM) of the same cell line?
**A.** Its relative viability is 0.948.

**Q.** And the relative viability ([9]; first compound 0.3162 µM)?
**A.** Its relative viability is 0.647.

**Q.** What about the relative viability ([10]; first compound 0.03162 µM) of the same cell line?
**A.** Its relative viability is 0.972.

**Q.** What about the relative viability ([10]; first compound 0.1 µM) of the same cell line?
**A.** Its relative viability is 0.922.

**Q.** What about the relative viability ([10]; first compound 0.3162 µM) of the same cell line?
**A.** The relative viability was 0.808.

**Q.** And the relative viability ([11]; first compound 0.03162 µM)?
**A.** The relative viability was 1.18.

**Q.** What about the relative viability ([11]; first compound 0.1 µM) of the same cell line?
**A.** Its relative viability is 1.28.

**Q.** What about the relative viability ([11]; first compound 0.3162 µM) of the same cell line?
**A.** Its relative viability is 1.09.

**Q.** With NCI-H1703 as the cell line, how does the relative viability ([1]; 0.03162 µM) read?
**A.** Its relative viability is 0.219.

**Q.** What about the relative viability ([1]; 0.1 µM) of the same cell line?
**A.** Its relative viability is 0.524.

**Q.** And the relative viability ([1]; 0.3162 µM)?
**A.** The relative viability was 0.213.

**Q.** And the relative viability ([2]; first compound 0.03162 µM)?
**A.** The relative viability was 0.151.

**Q.** What about the relative viability ([2]; first compound 0.1 µM) of the same cell line?
**A.** The relative viability was 0.269.

**Q.** What about the relative viability ([2]; first compound 0.3162 µM) of the same cell line?
**A.** Its relative viability is 0.125.

**Q.** And the relative viability ([12]; first compound 0.1 µM)?
**A.** The relative viability was 0.147.

**Q.** What about the relative viability ([12]; first compound 0.3162 µM) of the same cell line?
**A.** Its relative viability is 0.118.

**Q.** And the relative viability ([3]; first compound 0.1 µM)?
**A.** Its relative viability is 0.46.

**Q.** And the relative viability ([3]; first compound 0.3162 µM)?
**A.** Its relative viability is 0.215.

**Q.** And the relative viability ([5]; first compound 0.1 µM)?
**A.** Its relative viability is 0.438.

**Q.** What about the relative viability ([5]; first compound 0.3162 µM) of the same cell line?
**A.** Its relative viability is 0.267.

**Q.** What about the relative viability ([13]; first compound 0.03162 µM) of the same cell line?
**A.** The relative viability was 0.175.

**Q.** What about the relative viability ([13]; first compound 0.1 µM) of the same cell line?
**A.** The relative viability was 0.243.

**Q.** What about the relative viability ([13]; first compound 0.3162 µM) of the same cell line?
**A.** Its relative viability is 0.154.

**Q.** What about the relative viability ([6]; first compound 0.03162 µM) of the same cell line?
**A.** Its relative viability is 0.141.

**Q.** And the relative viability ([6]; first compound 0.1 µM)?
**A.** Its relative viability is 0.27.

**Q.** And the relative viability ([6]; first compound 0.3162 µM)?
**A.** The relative viability was 0.129.

**Q.** What about the relative viability ([7]; first compound 0.03162 µM) of the same cell line?
**A.** Its relative viability is 0.223.

**Q.** What about the relative viability ([7]; first compound 0.1 µM) of the same cell line?
**A.** The relative viability was 0.211.

**Q.** What about the relative viability ([7]; first compound 0.3162 µM) of the same cell line?
**A.** Its relative viability is 0.242.

**Q.** And the relative viability ([9]; first compound 0.03162 µM)?
**A.** Its relative viability is 0.205.

**Q.** And the relative viability ([9]; first compound 0.1 µM)?
**A.** The relative viability was 0.293.

**Q.** What about the relative viability ([9]; first compound 0.3162 µM) of the same cell line?
**A.** Its relative viability is 0.158.

**Q.** What about the relative viability ([10]; first compound 0.1 µM) of the same cell line?
**A.** The relative viability was 0.345.

**Q.** What about the relative viability ([10]; first compound 0.3162 µM) of the same cell line?
**A.** The relative viability was 0.294.

**Q.** What about the relative viability ([11]; first compound 0.03162 µM) of the same cell line?
**A.** Its relative viability is 0.277.

**Q.** And the relative viability ([11]; first compound 0.1 µM)?
**A.** Its relative viability is 0.398.

**Q.** And the relative viability ([11]; first compound 0.3162 µM)?
**A.** Its relative viability is 0.257.
